Data set [1] can be described thus: in vivo. An excerpt:
The mobile phase comprising acetonitrile (A) and 0.1% formic acid water (B) was set with a 0.40-ml/min flow rate. […] MassLynx 4.1 software (Waters Corp., Milford, MA, USA) was used for data acquisition, and the UPLC-MS/MS chromatogram of blank plasma that was spiked with probe drugs and metabolites is shown below ( Figure 1 ).
Ten specific pathogen-free (SPF) grade Sprague–Dawley rats (male, 220 ± 20 g) were provided by Wenzhou Medical University Laboratory Animal Research Center. This study was carried out in accordance with the principles of the Basel Declaration and recommendations of Wenzhou Medical University Administration Committee of Experimental Animals. The protocol was approved by the Wenzhou Medical University Administration Committee of Experimental Animals (ID Number: wydw2019-650). Ten rats were randomly divided into two groups: the vonoprazan group (n = 5) and control group (n = 5). Both groups were fasted overnight before experiments but were allowed water all the time. The six probe drug mixtures and vonoprazan were dissolved in 0.5% carboxy methyl cellulose sodium (CMC-Na), respectively. The vonoprazan group was administered 5 mg/kg of vonoprazan for 14 days. The control group was administered 0.5% CMC-Na.
Next, the samples were collected into 1.5-ml centrifuge tubes and were immediately centrifuged for 10 min at 4,000 rpm speed. For every 100 µl of rat plasma was added with 200 µl of acetonitrile in 0.5 μg/ml of IS was added, followed by vortex mixing for one minute. […] In vitro DDI detection system, the pH was 7.4 and the component of buffer was consisted of 100 mM potassium phosphate.
The GraphPad (version 7.0; GraphPad Software Inc., San Diego, CA, USA) was applied to calculate IC50 values and plot plasma concentration-time curves. The pharmacokinetic parameters using noncompartmental analysis was calculated by DAS (version 3.2.8; Wenzhou Medical University, China). Statistical comparisons within groups were conducted by SPSS (version 25.0; SPSS Inc., Chicago, IL, USA), using Student's t-test.

Data set [2] deals with CYP2D6. The data set can be described thus: Reversible inhibition of dextromethorphan metabolism by vonoprazan in rat liver microsomes (probe cocktail, UPLC-MS/MS). Particulars: pH 7.4, probe dextromethorphan (100 μM), rat liver microsomes 0.5 mg/ml, n = 3. Type of data set: in vitro ADME. How it is done: (§1) The pooled rat liver microsomes (RLMs) obtained from eight rats, which were weighed and homogenized with cold […] phosphate-buffered saline (PBS), containing […]. After centrifugation for 15 min at 11,000 rpm, the supernatants were separated and transferred into new tubes for another 15-min centrifugation at 11,000 rpm. Next, ultracentrifugation was performed at […] at 4°C for 1 h., and the microsomal pellets were resuspended with cold […] PBS and stored at −80°C ([Wang et al., 2015]). The protein concentration of RLMs was determined using the Bradford Protein Assay Kit (Thermo Scientific, Waltham, MA, USA).
(§2) Next, vonoprazan was applied as the inhibitor to determine the half maximal inhibitory concentration (IC50). […]. After preincubation in a shaking water bath at 37°C for 5 min, an NADPH-regenerating system was added to initiate the reaction in a final volume of 200 μl. The reaction was performed for 30 min, and was stopped by cooling to −80°C immediately. Next, 20 μl of internal standard (IS) working solution and 200 μl of acetonitrile were added. Centrifugation was performed at 13,000 rpm for 5 min after vortexing for 1 min. The supernatant mixture (2 μl) was injected into the UPLC–MS/MS system for analysis.

For data set [3], the target named is T1, CYP1A2 (Rattus norvegicus, UniProt P04799).
T1 construct: contained 0.5 mg/ml of RLMs; from tissue; host or cells: pooled rat liver microsomes
T1 sequence (P04799 1-513): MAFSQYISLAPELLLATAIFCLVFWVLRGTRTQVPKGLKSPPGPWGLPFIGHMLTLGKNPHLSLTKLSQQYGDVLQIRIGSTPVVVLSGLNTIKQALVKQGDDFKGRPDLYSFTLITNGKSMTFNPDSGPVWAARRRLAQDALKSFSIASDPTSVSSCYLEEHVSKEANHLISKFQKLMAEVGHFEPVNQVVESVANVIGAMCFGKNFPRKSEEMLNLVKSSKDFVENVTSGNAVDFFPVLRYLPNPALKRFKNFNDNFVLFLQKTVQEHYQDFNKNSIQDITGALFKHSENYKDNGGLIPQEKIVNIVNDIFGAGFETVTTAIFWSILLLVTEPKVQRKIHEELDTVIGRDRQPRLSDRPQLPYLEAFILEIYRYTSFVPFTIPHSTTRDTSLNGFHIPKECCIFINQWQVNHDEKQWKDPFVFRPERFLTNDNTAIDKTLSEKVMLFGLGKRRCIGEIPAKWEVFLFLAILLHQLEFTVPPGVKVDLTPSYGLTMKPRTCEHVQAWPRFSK
The data set can be described thus: Reversible inhibition of phenacetin metabolism by vonoprazan in rat liver microsomes (probe cocktail, UPLC-MS/MS). The note with it: vonoprazan 1-100 μM, phenacetin 40 μM. Type of data set: in vitro ADME. How it is done: as §1, §2
In general terms: Liver microsomes are a subcellular fraction often used to study metabolism.

In data set [4] the test system is CYP3A4. The data set can be described thus: Reversible inhibition of midazolam metabolism by vonoprazan in rat liver microsomes (probe cocktail, UPLC-MS/MS). The note with it: pH 7.4, probe midazolam (5 μM), rat liver microsomes 0.5 mg/ml, n = 3. Type of data set: in vitro ADME. The procedure:
as §1, §2

On the set-up of data set [5]: method as in Kogame et al., 2017. The note with it: rats; ref Kogame et al., 2017; cited from earlier work.
In data set [6] the test system is CYP2C9. Nature of the data set: Reversible inhibition of tolbutamide metabolism by vonoprazan in rat liver microsomes (probe cocktail, UPLC-MS/MS). Format: in vitro ADME. Particulars: pH 7.4, probe tolbutamide (10 μM), IC50 of vonoprazan on tolbutamide metabolism (CYP2C9), rat liver microsomes 0.5 mg/ml, n = 3. How it is done:
as §1, §2

In data set [7] the test system is CYP2B6. The data set can be described thus: Reversible inhibition of bupropion metabolism by vonoprazan in rat liver microsomes (probe cocktail, UPLC-MS/MS). Format: in vitro ADME. Particulars: pH 7.4, probe bupropion (20 μM). The procedure:
as §1, §2

[8] abbreviates: male, Sprague-Dawley, rat, in vivo.
Setting [9] is: male, Sprague-Dawley, rat, in vivo, po, 10 mg/kg.
The mark [10] stands for this setting: male, Sprague-Dawley, rat, in vivo, po.
The mark [11] stands for this setting: rats, Student's t-test, P < 0.05.
Where [12] appears, read: rats, vonoprazan group vs control group.

The structures appear in SMILES notation. Entries after “also recorded” stand apart in the source; their conditions may differ.

With `CC(NC(C)(C)C)C(=O)c1cccc(Cl)c1` (stereo not shown) [Bupropion], in data set [1] (setting [8]), the “Decrease of CLz/F by vonoprazan” value is on record as 70.6%, the “Decrease of Vz/F by vonoprazan” value worked out at 53.3%, the “Increase of AUC0→t compared with the control group” value (from here on “Increase of AUC0→t”) came to 2.17 fold and the “Increase of AUC0→∞ compared with the control group” value (from here on “Increase of AUC0→∞”) is given as 2.30 fold. Further, the “Increase of Cmax by addition of vonoprazan” value (from here on “Increase of Cmax”) in data set [1] (setting [8]) is listed as 2.33 fold. For the same compound, in data set [1] (setting [9]), the AUC(0-inf) (in general, the area under the concentration-time curve extrapolated to infinity) amounted to 243 ± 107 ng·h/mL; the AUC(0-t) (as a rule, the area under the concentration-time curve up to a stated or last time point) amounted to 242 ± 106 ng·h/mL; the apparent clearance CL/F (in general, the apparent clearance, not corrected for the fraction that reaches the circulation) was 863 mL/min/kg; the Cmax – broadly, the peak of the concentration-time curve – came out at 97.1 ± 55.5 ng/mL. In data set [1] (setting [9]), the MRT inf (usually a mean duration of stay, worked out from the concentration-time curve) is 2.78 ± 0.57 h; the MRT last (commonly a mean duration of stay, worked out from the concentration-time curve) worked out at 2.72 ± 0.51 h; the Tmax (commonly the time at which the peak concentration occurs) came out at 0.37 ± 0.36 h; the Vd/F (as a rule, the volume of distribution divided by bioavailability) came out at 99.1 ± 53.7 L/kg. Also, the half-life – broadly, the time in which the quantity being followed falls by half – in data set [1] (setting [9]) was 1.38 ± 0.25 h.
Take `COc1ccc2c(c1)[C@]13CCCC[C@@H]1[C@H](C2)N(C)CC3` [Dextromethorphan]: in data set [1] (setting [10]), the CL/F is 532 mL/min/kg, the Tmax worked out at 0.75 ± 0.77 h, the Vd/F stood at 125 ± 88.5 L/kg and the half-life is 2.61 ± 1.47 h. Further, in data set [1] (setting [11]), the “Difference in pharmacokinetic parameters after vonoprazan administration compared with the control group” value (“Difference in pharmacokinetic parameters” for short) is “significant differences”. Moreover, in data set [1] (setting [12]), the “Decrease of CLz/F by vonoprazan” value is recorded as 61.0%, the “Increase of AUC0→t” value is 1.52 fold, the “Increase of AUC0→∞” value was 1.50 fold and the “Increase of Cmax” value is reported as 1.87 fold.
In data set [1] (setting [9]), `Cc1ncc2n1-c1ccc(Cl)cc1C(c1ccccc1F)=NC2` [Midazolam] had an AUC(0-inf) of 657 ± 198 ng·h/mL, an AUC(0-t) of 625 ± 194 ng·h/mL, a CL/F of 282 mL/min/kg and a Cmax of 335 ± 191 ng/mL. Moreover, in data set [1] (setting [9]), the mean residence time (MRT inf) worked out at 2.34 ± 1.12 h, the MRT last worked out at 1.9 ± 0.6 h, the Tmax turned out to be 0.18 ± 0.09 h and the Vd/F came out at 39.4 ± 20.4 L/kg. The compound also had a half-life in data set [1] (setting [9]) of 1.85 ± 1.18 h. Further, in data set [1] (setting [11]), the “Difference in pharmacokinetic parameters” value is recorded as “significant differences”. Besides, the “Difference in pharmacokinetic parameters” value in data set [1] (rats, Student's t-test, P < 0.05, listed as midazolam) was “significant”. In data set [1] (setting [12]), the “Decrease of CLz/F by vonoprazan” value was determined as 54.7%, the “Increase of AUC0→t” value was 1.17 fold, the “Increase of AUC0→∞” value worked out at 1.25 fold and the “Increase of Tmax by addition of vonoprazan” value came to 1.50 fold.
With `CCOc1ccc(NC(C)=O)cc1` [Phenacetin], in data set [1] (setting [9]), the AUC(0-inf) came out at 5040 ng·h/mL, the AUC(0-t) was 5040 ng·h/mL, the CL/F is 37.5 mL/min/kg and the Cmax stood at 3870 ng/mL. For the same compound, in data set [1] (setting [9]), the MRT inf was determined as 1.13 ± 0.21 h, the MRT last was determined as 1.12 ± 0.2 h, the Tmax was 0.3 ± 0.11 h and the Vd/F was determined as 1.97 ± 0.81 L/kg. Besides, in data set [1] (rat, in vivo), the “Difference in pharmacokinetic parameters” value was “not significantly different”.
With `CCCCNC(=O)NS(=O)(=O)c1ccc(C)cc1` [Tolbutamide], in data set [1] (setting [8]), the “Increase of AUC0→t” value turned out to be 0.86 fold, the “Increase of AUC0→∞” value worked out at 0.83 fold and the “Increase of Cmax” value turned out to be 0.67 fold. In data set [1] (setting [10]), the CL/F is 0.167 mL/min/kg, the Tmax worked out at 3 ± 1 h, the Vd/F was found to be 0.03 ± 0.01 L/kg and the half-life was 4.99 ± 1.56 h.
On to `CCCCNC(=O)NS(=O)(=O)c1ccc(C)cc1` [Vonoprazan + tolbutamide], for which, in data set [1] (rat, in vivo, po), the CLz/F worked out at 0.033 ± 0.017 mL/min/kg, the Tmax worked out at 3.60 ± 1.34 h, the Vz/F is on record as 0.0140 ± 0.0020 L/kg and the t1/2z was found to be 4.83 ± 1.27 h.
Turning to `CNCc1cc(-c2ccccc2F)n(S(=O)(=O)c2cccnc2)c1` [vonoprazan, Vonoprazan], the IC50 (in general, the point on the concentration scale where inhibition reaches its midpoint) at 30 min in data set [2] is 3.62 µM; in data set [4] it was […]; in data set [6], 18.3 µM; in data set [7], 3.68 µM. In addition, the “Inhibition of phenacetin metabolism (CYP1A2) by vonoprazan” value in data set [3] is reported as “no inhibition; also recorded: no effect”. In addition, in data set [5], the “Reference maximum plasma concentration level” value is […].
